Results: patent US10583109B2, “Use of silver(I) complexes as anticancer agents” (University of Johannesburg, priority 2012, dated 2020)

Tests used:
[1] = system: MCF-7 breast cancer cells; assay: AlamarBlue viability and proliferation assay of MCF-7 breast cancer cells; format: cell-based, human; details: MCF-7 cells
Experimental: For the biological studies, MCF-7 breast cancer cells were obtained from an immortal cell line from human adenocarcinoma from (primary site) mammary gland and (metastatic site) pleural effusion (ATCC no HTB-22).
MCF-7 breast cancer cells were cultured in Dulbecco's modified Eagle's medium (DMEM), 13.53 g/L with sodium bicarbonate (NaHCO3), 3.7 g/L supplemented with 10% foetal bovine serum (FBS), 1% gentamycin and 5% Penicillin/Streptomycin/Fungizone in 75 cm^3 culture flasks. Cells were subcultured twice a week and incubated at 37° C. with 5% CO2 in a humidified atmosphere. Hanks balanced salt solution (HBSS), supplemented DMEM media and trypsin versene were warmed to 37° C. prior to subculturing. Cells were washed twice with 10 ml Hanks balanced salt solution for 1 minute and were then incubated for 4.5 to 5 minutes at 37° C. with 6 ml trypsin versene to remove the cells from the culture flask. To inactivate the trypsin versene, 10 ml supplemented DMEM was added and the cells were pelleted by centrifugation at 1028 g for 4 minutes with an Allegra™ 25R Centrifuge. The pellet was resuspended in 1 ml supplemented DMEM and 500 μl of the cell suspension was then added to 25 ml of supplemented DMEM media in 75 cm^3 culture flasks.
MCF-7 breast cancer cells, in terms of a first study, and SNO-oesophageal cancer cells, in terms of a second study, were treated with 10 μM silverthiocyanide complexes (1)-(5), as well as their ligands (Ligand-1 to Ligand-5) over a 24 hour incubation period. […] An untreated negative control (UT) was exposed to similar conditions as the treated cells and monitored during the experimental study.
The AlamarBlue® viability and proliferation assay of complexes (1)-(5) for the MCF-7 breast cancer cells is depicted in FIGS. 1A to 1F. The percentage viability of control samples determined by the AlamarBlue® viability and proliferation assay is depicted in FIG. 1A. […] A significant difference (P<0.001) between the control and the treated samples was calculated using Student's T-test and is indicated by an asterisk.
(§1) This Figure depicts the percentage viability of MCF-7 cells treated with various concentrations of complex (1) as determined by the AlamarBlue® viability and proliferation assay. […] The asterisk indicates a significant difference between a sample and the control (P<0.001) as calculated with Student's T-test.
as §1, with “FIG. 1C to FIG. 1F represent the dose dependant studies of complexes (2) to (5), respectively. In each of these Figures,” for “This Figure depicts”, “complexes (2) to (5) was” for “complex (1) as”, “T-test. […]” for “T-test.”

[2] = system: SNO-oesophageal cancer cells; format: cell-based
Experimental: The SNO-oesophageal cancer cells were cultured in Dulbecco's modified Eagles medium (DMEM) containing 10% Foetal bovine serum (FBS), 0.8% Penicillin/Streptomycin/Fungizone and 0.2% Gentamycin. The SNO-oesophageal cancer cells were subcultured every 48 hours and incubated at 37° C. under a 5% CO2 humidified atmosphere. After 48 hours the cells were trypsinized and plated (6×10^5 cells) in 3.5 cm culture dishes and left to cultivate for 24 hours.
MCF-7 breast cancer cells, in terms of a first study, and SNO-oesophageal cancer cells, in terms of a second study, were treated with 10 μM silverthiocyanide complexes (1)-(5), as well as their ligands (Ligand-1 to Ligand-5) over a 24 hour incubation period. These complexes were dissolved in 0.1% Dimethyl sulfoxide (DMSO). The DMSO alone (vehicle control) decreased the viability with approximately 2.2%, signifying its minimal influence in cancer cell growth. For comparative purposes, 100 μM Cisplatin (CDDP) and 25% H2O2 was included which respectively serves as the apoptotic and necrotic controls. Cisplatin was prepared in 0.9% NaCl, whereas H2O2 was prepared in the supplemented DMEM media right before treatment. An untreated negative control (UT) was exposed to similar conditions as the treated cells and monitored during the experimental study.
An AlamarBlue® Viability® (Serotec, UK) assay was performed after a 24 hour treatment with complexes (1)-(5) and their ligands (Ligand-1 to Ligand-5, respectively) to evaluate the cellular effect the instant complexes (and their ligands) may have on the cancer cells. AlamarBlue® dye (10%) was incubated with trypsinized cells over a 2 hour period before the fluorescence was measured with a Synergy HT Multi-Detection Microplate reader (BioTek, Winooski, Vt.) at wavelengths of 530 nm and (excitation) and 590 nm (emission). This fluorescent based assay in particular involves the metabolic oxidation-reduction reaction of resazurin to a reduced resorufin product that is directly proportional to the amount of viable cells.
The percentage cellular viability of differentially treated SNO-oesophageal cells was determined using an AlamarBlue® assay, as depicted in FIG. 7. Different controls (grey) were included: untreated, 0.1% DMSO solvent and apoptotic control (100 μM Cisplatin) as well as the corresponding ligands (10 μM) of complexes (1)-(5). Cells were treated with silver(I) thiocyanate phosphine complexes (1)-(5) at a concentration of 10 μM. The percentages were calculated with respect to the control and error bars were constructed on the basis of Standard Error of the Mean (SEM) where n=9 except for the ligand of compound 4 (n=8). The P-values (*P<0.001 and **P<0.0001) were determined with the Student's T-test to evaluate the significant difference.
The cells were thereafter treated with complexes (6)-(9) at a concentration of 10 μM prepared in 0.1% DMSO. Treatment with either 25% H2O2 or 100 μM CDDP served as controls for necrosis and apoptosis respectively. The CDDP was prepared in 0.9% NaCl while the H2O2 was diluted with supplemented DMEM prior to treatment.
A suspension (100 μl) of the differentially treated cells was added in triplicate to a microtiter plate. In the dark, AlamarBlue® dye (10 μl) was added to each well containing a sample, followed by a 2 hour incubation in a 5% CO2 incubator at 37° C. The fluorescence was read on a Synergy HT Multi-Detection Microplate reader at a wavelength of 530 nm and (excitation) and 590 nm (emission). In terms of this study, the apoptotic control CDDP (100 μM) was included. Error bars represent the standard error of the mean (SEM) where n=9. The Student's T-test was used to determine the significant difference of the treatments with respect to DMSO (P*<0.05 and P**<0.001). The silver(I) nitrate phosphine complexes under evaluation decreased the cancer cell viability to a large extent compared to DMSO except complex (9).
SNO-oesophageal cancer cells were a gift from the University of Pretoria, RSA. […]

Compound | cytotoxic activity (ranking) [1] | cancer cell viability / toxicity ([2]; 10 μM in 0.1% DMSO, 24 hours, compared to vehicle control) | cancer cell death induced ([2]; 10 μM, 24 hours) | percentage cellular viability / toxicity ([2]; 10 μM, 24 hour treatment, compared to the control)
C1#[N+][Ag]([P+](c2ccccc2)(c2ccccc2)c2ccccc2)([P+](c2ccccc2)(c2ccccc2)c2ccccc2)[S]C#[N+][Ag]([P+](c2ccccc2)(c2ccccc2)c2ccccc2)([P+](c2ccccc2)(c2ccccc2)c2ccccc2)[S]1 [complex (1), [AgSCN(PPh3)2]2] | strongest | – | – | –
c1ccc([P+](c2ccccc2)(c2ccccc2)[Ag+]([P+](c2ccccc2)(c2ccccc2)c2ccccc2)([P+](c2ccccc2)(c2ccccc2)c2ccccc2)[P+](c2ccccc2)(c2ccccc2)c2ccccc2)cc1 [complex (9), AgNO3(PPh3)4] | – | low cytotoxicity | ~31.25% | –
[AgSCN{P(4-FC6H4)3}2]2 [complex (3)] | strongest | – | – | highly toxic
